{"source": "patent US20230114207A1", "about": "“THE COMBINATION OF CYCLIN DEPENDENT KINASE 7 INHIBITOR AND IMMUNOTHERAPY FOR TREATMENT OF CANCER” (Dana-Farber Cancer Institute, Inc., priority 2019, published 2023)", "key": {"[1]": {"test_system": "intratumoral cell populations, RPP orthotopic mice", "experiment": "Single-cell RNA sequencing of tumor-bearing lungs", "format": "in vivo, mouse", "description": "To account for interindividual variability, we harvested pooled fresh tumor-bearing lungs from two mice in two independent cohorts of RPP orthotopic mice which were treated with control, YKL-5-124, anti-PD-1 and combination treatment for seven days. Single cell suspensions were achieved as described above and were sorted using DAPI staining. Cells were then resuspended into single cells with 0.4% BSA for 10× genomics processing. Cell suspensions were loaded onto a 10× Genomics Chromium instrument to generate single-cell gel beads in emulsion (GEMs). Approximately 5,000 to 10,000 cells were loaded per channel. scRNA-seq libraries were prepared using the following Single Cell 3′ Reagent Kits: Chromium™ Single Cell 3′ Library & Gel Bead Kit v2 (PN-120237), Single Cell 3′ Chip Kit v2 (PN-120236) and i7 Multiplex Kit (PN-120262) (10× Genomics, Pleasanton, Calif., USA), and following the Single Cell 3′ Reagent Kits v2 User Guide (Manual Part #CG00052 Rev A). Libraries were run on an Illumina HiSeq 4000 system (SY-401-4001, Illumina) as 2×150 paired-end reads, one full lane per sample, for approximately >90% sequencing saturation.\nThe Cell Ranger Single Cell Software Suite, version 1.3 was used to perform sample de-multiplexing, barcode and UMI processing, and single-cell 3′ gene counting. A detailed description of the pipeline and specific instructions to run it can be found at: https://Support.10×genomics.com/single-cell-gene-expression/software/pipelines/latest/what-is-cell-ranger). A high quality gene expression matrix was created in sequential preprocessing steps as provided in the Seurat (v2.3.4) pipeline. First only genes that were detected in both independent scRNAseq datasets were retained and cells were excluded if respectively more than […] of detected genes were from mitochondrial or ribosomal origin or if less than 500 genes were detected. The count matrix was subsequently log-normalized with a scale-factor of 10000 and the obtained normalized matrix was further corrected by retaining the residuals after regressing out systematic changes due to number of detected UMIs, percent genes from mitochondrial or ribosomal origin.\nCells from both independent datasets were merged together in canonical correlation (CC) space using the intersection of highly variable genes, identified as genes with higher-than-expected variability in consecutive ranked expression bins, from both datasets. The implementation of CC alignment and selection of downstream dimensions to use was performed as described in the Seurat package. Cells were clustered using the Louvain algorithm based on a shared nearest-neighbor network. The final resolution of all subsequent clustering analyses was determined by the biological questions and the need for coarse or fine-grained detail as explored in the subsequent cluster annotation. Clusters were annotated using input from multiple sources, we i) calculated a stromal, cancer and immune score using the estimate (v1.0.13) package in R, ii) identified cluster specific gene expression markers based on gini-scores, iii) created a hierarchical tree based on Pearson correlation scores between clusters to visualize lineage relationships and iv) compared clusters to those of the Immgen database using the SingleR (v0.2.1) package in R. UMAP as implemented by the uwot (v0.0.0.9010) package in R was used to visualize clusters in 2D CC space. Overall this strategy was hierarchically used to assess all cells, cancer cells only, immune cells only and finally T-cells only.\nIn the first clustering step, several additional analyses were performed to remove dubious or non-reproducible clusters from downstream analyses. To identify contamination of immune cell clusters with cancer cells we performed k-means (2 centers) clustering on all cells on identified and known canonical markers (Epcam, Calca, Stmn1, Ascl1, Krt7, Nfib, Krt8, Krt18) specific to cancer cells. […]"}, "[2]": {"test_system": "RPP631 cells", "experiment": "Bulk RNA-sequencing and GSEA", "format": "cell-based, mouse", "settings": "48 hr", "description": "Paired-end reads were aligned to mouse mm10 genome using STAR (v2.5.2b). Reads with good mapping quality (MAPQ>30) that aligned to genomic exons were counted using featureCounts (mm10 Ensembl 93) to generate a table with counts for each gene. Differential gene expression analysis was performed using the R package DESeq2 using the lfcShrink function. […] Gene set enrichment analysis (GSEA) was performed on a list of genes ranked from high to low DESeq2 estimated fold-change using the GSEAPreRanked function with enrichment statistic classic and 1000 permutations."}}}
{"smiles": "C=CC(=O)Nc1ccc(C(=O)Nc2n[nH]c3c2CN(C(=O)N[C@H](CN(C)C)c2ccccc2)C3(C)C)cc1", "note": "[YKL-5-124]", "values": [{"measurement": "frequencies of total immune cell components", "setting": "[1]; compared with control group", "result": "increase"}, {"measurement": "DCs", "setting": "[1]; in comparison to control", "result": "increase"}, {"measurement": "myeloid compartments", "setting": "[1]; in comparison to control", "result": "higher numbers of monocytes and neutrophils"}, {"measurement": "percentage of total T cells, NK cells and ILC cells", "setting": "[1]; in comparison to control", "result": "significant increase"}, {"measurement": "genes within the 'cell-cycle' and 'E2F target' signatures (GSEA)", "setting": "[1]; in vivo", "result": "significantly downregulated"}, {"measurement": "immune response signaling ('Interferon gamma response', 'Inflammatory response')", "setting": "[1]; in vivo", "result": "triggered robust immune response signaling"}, {"measurement": "cell-cycle state distribution of cancer cells", "setting": "[1]; in vivo, seven days", "result": "mainly arrested at G1 phase"}, {"measurement": "percentage of S phase cells (cluster 4, 5 and 6)", "setting": "[1]; in vivo, seven days", "result": "significant decrease"}, {"measurement": "c0, c8 and c9 clusters of naive-like CD8^+ T cells", "setting": "[1]; mouse, in vivo", "result": "reduction"}, {"measurement": "c4 percentage", "setting": "[1]; mouse, in vivo", "result": "slight reduction"}, {"measurement": "expression of pro-inflammatory cytokines and chemokines incl. TNFα pathway components and Cxcl10 (heatmaps)", "setting": "[2]", "result": "increased expression"}, {"measurement": "genes within GSEA terms associated with cell cycle, mitosis and E2F targets", "setting": "[2]", "result": "downregulated"}, {"measurement": "expression of SCLC SE-associated genes", "setting": "[2]; compared with THZ1", "result": "little effect"}, {"measurement": "'Interferon gamma response', 'TNFα signaling' and 'Inflammatory response' Hallmarks signatures (GSEA)", "setting": "[2]; three of the top five", "result": "most positively regulated"}]}
